Experimental data published in ChEMBL document CHEMBL1201862, “PubChem BioAssay data set” (2004).
Active and inactive are the calls of the source.

Key:
[1] = target: T1, Short transient receptor potential channel 4 (Mus musculus, UniProt Q9QUQ5); assay: mouse TRPC4 channel inhibitors, dose response, cell-based, HEK293 TRPC4/mu-opioid, Fluo-4 calcium (AID 434942); format: functional;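 further: potency of inhibitors blocking the TRPC4 calcium response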
T1 sequence (Q9QUQ5 whole entry): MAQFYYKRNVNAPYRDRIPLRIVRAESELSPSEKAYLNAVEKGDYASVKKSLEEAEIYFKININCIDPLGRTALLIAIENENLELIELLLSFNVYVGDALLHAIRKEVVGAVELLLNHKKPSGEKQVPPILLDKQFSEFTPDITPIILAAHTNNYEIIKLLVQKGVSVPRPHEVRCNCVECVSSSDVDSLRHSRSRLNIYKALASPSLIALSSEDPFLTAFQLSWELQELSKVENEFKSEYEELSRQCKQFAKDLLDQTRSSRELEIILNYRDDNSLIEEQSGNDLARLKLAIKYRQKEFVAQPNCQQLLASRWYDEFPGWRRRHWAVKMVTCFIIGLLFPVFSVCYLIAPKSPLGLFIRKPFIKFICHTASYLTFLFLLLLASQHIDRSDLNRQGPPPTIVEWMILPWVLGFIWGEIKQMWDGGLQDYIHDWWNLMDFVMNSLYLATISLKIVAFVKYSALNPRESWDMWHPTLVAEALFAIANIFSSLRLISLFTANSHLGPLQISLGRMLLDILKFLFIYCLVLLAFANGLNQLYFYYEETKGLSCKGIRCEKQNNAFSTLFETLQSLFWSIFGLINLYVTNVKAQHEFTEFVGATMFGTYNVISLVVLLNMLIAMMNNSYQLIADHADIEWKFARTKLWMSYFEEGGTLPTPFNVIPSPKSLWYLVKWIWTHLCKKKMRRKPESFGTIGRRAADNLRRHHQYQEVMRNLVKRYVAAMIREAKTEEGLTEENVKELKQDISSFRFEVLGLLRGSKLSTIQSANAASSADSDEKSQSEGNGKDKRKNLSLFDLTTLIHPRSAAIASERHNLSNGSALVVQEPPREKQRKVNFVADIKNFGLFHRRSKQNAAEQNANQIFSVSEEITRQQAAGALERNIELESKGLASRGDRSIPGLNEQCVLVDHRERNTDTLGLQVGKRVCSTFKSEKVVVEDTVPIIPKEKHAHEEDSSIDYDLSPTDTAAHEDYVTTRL

[2] = target: Luciferin 4-monooxygenase (Photinus pyralis, UniProt P08659); assay: firefly luciferase enzyme inhibitors, dose response, biochemical, luminescence (AID 1891)
[3] = Luminescence Cell-Based Dose Confirmation HTS to Identify Inhibitors of Platelet Dense Granule Release. [Related pubchem assays: 1663 (Primary HTS), 1678 (Summary of Project)]; format: functional
Genome polyprotein = Genome polyprotein (dengue virus type 2, UniProt P29990); assay: Dengue-2 NS5 methyltransferase inhibitors, primary screen, biochemical, confirmation dose response (AID 588689); format: functional
Coagulation factor XII = target: T2, Coagulation factor XII (Homo sapiens, UniProt P00748); format: functional;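 further: activated factor XIIa alpha cleaving a fluorogenic AMC peptide substrate; inhibitor potency from loss of enzyme activity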
T2 sequence (P00748 whole entry): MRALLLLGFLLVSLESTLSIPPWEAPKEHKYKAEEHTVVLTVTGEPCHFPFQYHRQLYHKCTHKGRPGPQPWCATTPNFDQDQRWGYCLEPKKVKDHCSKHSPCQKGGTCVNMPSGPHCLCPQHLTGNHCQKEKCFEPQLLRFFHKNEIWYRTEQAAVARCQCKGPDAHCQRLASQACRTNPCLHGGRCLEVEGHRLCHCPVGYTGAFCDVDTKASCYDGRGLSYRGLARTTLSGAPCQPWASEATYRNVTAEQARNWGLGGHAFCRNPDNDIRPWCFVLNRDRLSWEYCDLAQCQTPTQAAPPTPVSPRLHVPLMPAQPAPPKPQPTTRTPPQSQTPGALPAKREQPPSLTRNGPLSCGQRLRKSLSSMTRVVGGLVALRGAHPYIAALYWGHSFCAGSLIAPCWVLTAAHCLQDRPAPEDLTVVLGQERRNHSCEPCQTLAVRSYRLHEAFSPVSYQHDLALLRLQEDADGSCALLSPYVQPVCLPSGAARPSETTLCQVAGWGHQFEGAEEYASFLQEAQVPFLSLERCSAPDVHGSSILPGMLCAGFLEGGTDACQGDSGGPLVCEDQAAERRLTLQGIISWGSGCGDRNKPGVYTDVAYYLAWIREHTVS

Large T antigen = Large T antigen (Simian virus 40, UniProt P03070); format: functional, Betapolyomavirus macacae;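 further: Confirmatory-stage PubChem screen for compounds that inhibit SV40 T antigen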
Sequence of Large T antigen (P03070 whole entry): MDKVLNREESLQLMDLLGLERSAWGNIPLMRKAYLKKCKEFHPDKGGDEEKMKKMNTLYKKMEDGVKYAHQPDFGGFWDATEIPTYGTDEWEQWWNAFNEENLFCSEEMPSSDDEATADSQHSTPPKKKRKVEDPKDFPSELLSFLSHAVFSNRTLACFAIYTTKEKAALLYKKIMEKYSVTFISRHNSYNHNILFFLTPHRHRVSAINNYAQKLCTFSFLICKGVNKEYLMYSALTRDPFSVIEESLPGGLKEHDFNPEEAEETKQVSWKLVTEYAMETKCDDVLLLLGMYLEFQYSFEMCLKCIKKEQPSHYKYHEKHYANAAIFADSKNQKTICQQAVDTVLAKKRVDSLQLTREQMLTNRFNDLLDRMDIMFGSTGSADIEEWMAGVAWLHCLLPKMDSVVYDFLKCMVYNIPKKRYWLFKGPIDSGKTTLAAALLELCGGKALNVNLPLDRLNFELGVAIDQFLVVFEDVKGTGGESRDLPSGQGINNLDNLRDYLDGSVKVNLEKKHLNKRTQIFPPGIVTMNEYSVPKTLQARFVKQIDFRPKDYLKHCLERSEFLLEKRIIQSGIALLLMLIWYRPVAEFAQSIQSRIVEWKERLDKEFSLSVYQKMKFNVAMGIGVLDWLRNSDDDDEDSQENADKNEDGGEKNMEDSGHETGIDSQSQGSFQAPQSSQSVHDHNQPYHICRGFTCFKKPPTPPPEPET

[4] = target: Peroxisome proliferator-activated receptor gamma/Nuclear receptor coactivator 3 (Homo sapiens, UniProt P37231); assay: (§1) TR-FRET dose response biochemical High Throughput Screening assay for agonists of the steroid receptor coactivator 3 (SRC-3) recruitment by the peroxisome proliferator-activated receptor gamma (PPAR gamma): non-selective agonists. [Related pubchem assays: 1301 (Confirmation screen.), 1048 (Primary screen.)]; format: functional
Sequence of Peroxisome proliferator-activated receptor gamma/Nuclear receptor coactivator 3 (P37231 whole entry): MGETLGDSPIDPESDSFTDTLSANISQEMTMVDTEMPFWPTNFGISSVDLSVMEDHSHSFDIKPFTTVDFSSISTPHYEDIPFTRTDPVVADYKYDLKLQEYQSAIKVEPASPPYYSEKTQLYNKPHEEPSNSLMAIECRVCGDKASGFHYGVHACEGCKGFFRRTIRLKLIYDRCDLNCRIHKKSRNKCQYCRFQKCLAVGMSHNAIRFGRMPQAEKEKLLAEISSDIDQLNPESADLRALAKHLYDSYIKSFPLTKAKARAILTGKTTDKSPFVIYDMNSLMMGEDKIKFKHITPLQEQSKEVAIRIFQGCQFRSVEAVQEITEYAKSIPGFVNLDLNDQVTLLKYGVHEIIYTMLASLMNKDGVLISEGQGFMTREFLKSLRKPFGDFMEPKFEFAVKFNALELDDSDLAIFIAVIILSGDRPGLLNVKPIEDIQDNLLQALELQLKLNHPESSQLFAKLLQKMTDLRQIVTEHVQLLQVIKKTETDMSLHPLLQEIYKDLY
Sequence of Peroxisome proliferator-activated receptor gamma/Nuclear receptor coactivator 3 (Q9Y6Q9 whole entry, further chain): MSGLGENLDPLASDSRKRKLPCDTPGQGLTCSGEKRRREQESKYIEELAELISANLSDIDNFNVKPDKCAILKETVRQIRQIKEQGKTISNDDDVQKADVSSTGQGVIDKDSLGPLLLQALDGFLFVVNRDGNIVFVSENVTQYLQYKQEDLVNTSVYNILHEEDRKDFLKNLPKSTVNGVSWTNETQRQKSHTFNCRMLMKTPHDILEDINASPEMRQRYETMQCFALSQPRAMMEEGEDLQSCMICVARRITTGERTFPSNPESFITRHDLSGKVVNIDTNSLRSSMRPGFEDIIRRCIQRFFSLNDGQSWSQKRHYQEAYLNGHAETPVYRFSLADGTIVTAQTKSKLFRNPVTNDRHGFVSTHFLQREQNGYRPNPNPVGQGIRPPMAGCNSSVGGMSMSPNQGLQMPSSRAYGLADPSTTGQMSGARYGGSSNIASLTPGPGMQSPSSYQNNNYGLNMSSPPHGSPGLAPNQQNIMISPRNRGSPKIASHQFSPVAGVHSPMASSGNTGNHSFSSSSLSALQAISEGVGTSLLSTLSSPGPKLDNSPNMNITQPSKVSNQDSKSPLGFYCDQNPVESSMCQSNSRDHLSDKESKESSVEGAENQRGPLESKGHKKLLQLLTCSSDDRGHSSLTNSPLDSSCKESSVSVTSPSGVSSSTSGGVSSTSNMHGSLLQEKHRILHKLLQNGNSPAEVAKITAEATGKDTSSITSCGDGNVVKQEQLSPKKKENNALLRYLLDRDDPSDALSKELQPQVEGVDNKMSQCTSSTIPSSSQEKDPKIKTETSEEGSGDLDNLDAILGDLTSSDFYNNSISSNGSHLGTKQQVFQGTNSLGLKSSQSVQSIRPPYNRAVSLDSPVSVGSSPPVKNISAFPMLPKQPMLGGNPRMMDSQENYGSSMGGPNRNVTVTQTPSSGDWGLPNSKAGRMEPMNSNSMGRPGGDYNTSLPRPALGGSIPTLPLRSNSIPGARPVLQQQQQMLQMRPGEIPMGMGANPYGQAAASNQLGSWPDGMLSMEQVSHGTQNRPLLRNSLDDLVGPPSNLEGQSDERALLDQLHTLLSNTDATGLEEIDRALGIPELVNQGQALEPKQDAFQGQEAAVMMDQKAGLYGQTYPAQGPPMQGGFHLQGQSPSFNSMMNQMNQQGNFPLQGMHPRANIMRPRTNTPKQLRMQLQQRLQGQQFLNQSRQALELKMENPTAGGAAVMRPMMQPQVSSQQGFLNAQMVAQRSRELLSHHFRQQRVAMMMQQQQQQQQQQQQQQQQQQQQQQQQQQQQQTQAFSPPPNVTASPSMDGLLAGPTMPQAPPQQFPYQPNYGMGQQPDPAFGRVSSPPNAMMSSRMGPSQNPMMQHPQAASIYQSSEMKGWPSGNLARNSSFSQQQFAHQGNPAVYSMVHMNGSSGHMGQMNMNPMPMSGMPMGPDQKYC

[5] = target: Peroxisome proliferator-activated receptor gamma/Nuclear receptor coactivator 1 (Homo sapiens, UniProt P37231); assay: as §1, with “1 (SRC-1)” for “3 (SRC-3)”, “assays (depositor defined):AID1300, AID1808, AID504735, AID631]” for “assays: 1301 (Confirmation screen.), 1048 (Primary screen.)]”; format: protein assay
[6] = target: Peroxisome proliferator-activated receptor gamma/Nuclear receptor coactivator 2 (Homo sapiens, UniProt P37231); assay: TR-FRET dose response biochemical High Throughput Screening assay for agonists of the steroid receptor coactivator 2 (SRC-2) recruitment by the peroxisome proliferator-activated receptor gamma (PPAR gamma): non-selective agonists. [Related pubchem assays: 1297, 1032 ]; format: functional
Sequence of Peroxisome proliferator-activated receptor gamma/Nuclear receptor coactivator 2 (P37231 whole entry): as the sequence (P37231 whole entry) above
Sequence of Peroxisome proliferator-activated receptor gamma/Nuclear receptor coactivator 2 (Q15596 whole entry, further chain): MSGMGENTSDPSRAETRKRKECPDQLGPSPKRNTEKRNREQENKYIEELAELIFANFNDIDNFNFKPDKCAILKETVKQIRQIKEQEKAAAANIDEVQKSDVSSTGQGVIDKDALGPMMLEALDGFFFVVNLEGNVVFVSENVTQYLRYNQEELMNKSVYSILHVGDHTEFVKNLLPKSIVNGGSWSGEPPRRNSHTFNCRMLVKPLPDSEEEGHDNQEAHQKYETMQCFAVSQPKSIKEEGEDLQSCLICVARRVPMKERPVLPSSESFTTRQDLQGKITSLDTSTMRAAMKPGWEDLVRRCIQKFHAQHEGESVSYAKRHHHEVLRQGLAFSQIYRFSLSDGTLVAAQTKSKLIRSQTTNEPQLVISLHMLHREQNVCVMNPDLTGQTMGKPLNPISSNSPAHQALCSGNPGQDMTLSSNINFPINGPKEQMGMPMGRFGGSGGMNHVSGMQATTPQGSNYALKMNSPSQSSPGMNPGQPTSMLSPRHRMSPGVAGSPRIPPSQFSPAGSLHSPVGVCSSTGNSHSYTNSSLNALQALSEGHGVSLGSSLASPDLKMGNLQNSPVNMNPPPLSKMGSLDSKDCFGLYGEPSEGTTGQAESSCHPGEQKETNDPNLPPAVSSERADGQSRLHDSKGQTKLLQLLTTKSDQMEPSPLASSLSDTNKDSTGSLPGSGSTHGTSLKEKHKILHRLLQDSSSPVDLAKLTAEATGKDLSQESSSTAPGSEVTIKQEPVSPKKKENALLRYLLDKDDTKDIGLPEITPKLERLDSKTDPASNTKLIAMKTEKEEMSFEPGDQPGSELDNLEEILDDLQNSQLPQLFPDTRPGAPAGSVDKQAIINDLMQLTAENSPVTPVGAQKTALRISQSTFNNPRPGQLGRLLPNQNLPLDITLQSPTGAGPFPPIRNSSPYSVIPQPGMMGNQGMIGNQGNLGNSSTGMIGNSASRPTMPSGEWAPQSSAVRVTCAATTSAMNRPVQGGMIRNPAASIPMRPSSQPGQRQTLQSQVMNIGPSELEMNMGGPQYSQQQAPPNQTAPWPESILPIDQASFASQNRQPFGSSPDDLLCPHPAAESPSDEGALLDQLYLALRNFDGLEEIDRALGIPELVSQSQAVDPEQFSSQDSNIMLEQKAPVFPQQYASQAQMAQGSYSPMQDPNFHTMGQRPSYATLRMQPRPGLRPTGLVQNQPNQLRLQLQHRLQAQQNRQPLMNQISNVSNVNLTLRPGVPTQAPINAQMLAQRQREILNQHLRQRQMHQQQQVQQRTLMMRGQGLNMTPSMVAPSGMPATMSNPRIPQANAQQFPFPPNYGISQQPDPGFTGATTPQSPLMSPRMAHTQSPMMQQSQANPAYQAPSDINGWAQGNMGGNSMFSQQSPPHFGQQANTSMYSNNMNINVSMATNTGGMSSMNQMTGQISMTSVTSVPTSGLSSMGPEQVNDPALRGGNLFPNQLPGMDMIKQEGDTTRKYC

[7] = target: T3, Zinc finger protein mex-5 (Caenorhabditis elegans, UniProt Q9XUB2); assay: MEX-5/TCR-2 RNA interaction inhibitors, dose response, biochemical, C. elegans, fluorescence polarization (AID 1960)
T3 sequence (Q9XUB2 whole entry): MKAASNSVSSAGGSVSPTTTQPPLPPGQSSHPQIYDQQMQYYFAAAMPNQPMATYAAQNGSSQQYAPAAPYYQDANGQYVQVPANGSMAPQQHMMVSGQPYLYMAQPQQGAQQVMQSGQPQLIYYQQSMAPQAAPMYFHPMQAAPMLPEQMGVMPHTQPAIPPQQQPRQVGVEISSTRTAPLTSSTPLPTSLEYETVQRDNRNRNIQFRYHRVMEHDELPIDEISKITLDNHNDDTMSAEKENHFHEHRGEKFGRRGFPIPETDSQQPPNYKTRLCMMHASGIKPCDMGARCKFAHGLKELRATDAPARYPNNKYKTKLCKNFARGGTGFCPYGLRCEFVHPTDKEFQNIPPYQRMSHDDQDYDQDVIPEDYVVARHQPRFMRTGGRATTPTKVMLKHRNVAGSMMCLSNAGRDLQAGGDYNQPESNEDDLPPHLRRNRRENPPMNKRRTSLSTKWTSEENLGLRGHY

[8] = target: T4, RNA-binding protein pos-1 (Caenorhabditis elegans, UniProt G5EF15); assay: inhibitors of POS-1/mex-3 RNA binding, dose response, biochemical, fluorescence polarization (AID 1964);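 further: purified POS-1 fused to maltose binding protein made in E. coli; potency of compounds blocking POS-1 binding to fluorescent RNA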
T4 sequence (G5EF15 whole entry): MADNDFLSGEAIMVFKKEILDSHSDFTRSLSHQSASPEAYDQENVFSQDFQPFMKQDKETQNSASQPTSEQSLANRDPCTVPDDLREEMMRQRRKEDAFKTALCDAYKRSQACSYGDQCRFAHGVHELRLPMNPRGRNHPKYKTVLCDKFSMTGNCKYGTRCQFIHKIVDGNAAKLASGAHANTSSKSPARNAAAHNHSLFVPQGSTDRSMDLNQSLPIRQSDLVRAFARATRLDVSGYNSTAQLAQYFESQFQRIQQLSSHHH

[9] = target: T5, Carboxy-terminal domain RNA polymerase II polypeptide A small phosphatase 1 (Homo sapiens, UniProt Q9GZU7); assay: inhibitors of CTDSP1, concentration-response testing, biochemical assay, absorbance-based, actives from ultra-high-throughput screening (AID 540297); format: functional
T5 sequence (Q9GZU7 whole entry): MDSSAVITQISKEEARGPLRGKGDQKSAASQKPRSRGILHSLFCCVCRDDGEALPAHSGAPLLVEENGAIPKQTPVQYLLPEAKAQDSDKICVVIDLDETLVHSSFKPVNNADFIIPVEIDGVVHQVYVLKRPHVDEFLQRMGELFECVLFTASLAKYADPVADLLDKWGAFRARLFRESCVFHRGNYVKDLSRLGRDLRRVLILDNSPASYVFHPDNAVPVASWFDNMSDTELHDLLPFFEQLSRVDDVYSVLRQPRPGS

[10] = inhibitors of SNCA 5'UTR-driven reporter translation, confirmation, H4 neuroglioma cells, luminescence (AID 1988); format: functional, cell-based
[11] = Luminescence Cell-Based Dose Response HTS to Identify Inhibitors of 5'UTR Stem-Loop Driven Prion Protein mRNA Translation in H4 Neuroglioblastoma Cells. [Related pubchem assays: 1827 (Project Summary), 1813 (Primary HTS)]; format: functional

## O=[N+]([O-])c1cccc(-c2nnc(C3CC3)o2)c1
[1]
  EC50: 3.76 µM (active)

## Cc1ccc(-c2nc(C[S+]([O-])CC(=O)NCCCN3CC(C)CC(C)C3)c(C)o2)cc1 (stereo not drawn)
[2]
  EC50: > 112 µM (not active)
[3]
  EC50: > 112 µM (not active)

## Cc1ccc(CSc2nnc3c(n2)OC2(Nc4ccccc4-3)C(=O)Nc3ccc(F)cc32)cc1 (stereo not drawn)
Genome polyprotein
  IC50: 25 µM (active)

## CCCn1c(=O)c2ccccc2n2c(SCCOc3ccccc3)nnc12
[1]
  EC50: 5.96 µM (active)

## O=C(OCC(=O)c1ccc(Cl)s1)c1ccc2ccccc2n1
Coagulation factor XII
  IC50: > 50 µM (inactive)

## CN(Cc1ccccc1)c1ccc(S(=O)(=O)N2CCOCC2)cn1
[2]
  EC50: > 112 µM (not active)
[3]
  EC50: > 112 µM (not active)

## Cc1ccc(S(=O)(=O)N2CCCOC2CNC(=O)C(=O)NCCc2c[nH]c3ccccc23)cc1 (stereo not drawn)
Large T antigen
  IC50: 86.8 µM (active)

## COC(=O)c1c(N=C(S)Nc2ccccc2Cl)sc(C)c1C
[4]
  EC50: > 79.4 µM (not active)
[5]
  EC50: 84.9 µM (inactive)
[6]
  EC50: 28.6 µM (not active)

## COC(=O)c1sccc1NC(=O)Nc1cccc(C)c1
[2]
  EC50: 0.21 µM (active)
[3]
  EC50: 2.5 µM (active)

## O=S(=O)(Nc1ccccc1)c1ccc(-c2csnn2)cc1
Coagulation factor XII
  IC50: > 50 µM (inactive)

## O=C(CN1C(=O)c2cccc3cccc1c23)NCc1ccc2c(c1)OCO2
Coagulation factor XII
  IC50: > 50 µM (inactive)

## c1ccc(-c2nc(-c3cccs3)[nH]c2-c2ccccc2)cc1
[4]
  EC50: > 79.4 µM (not active)
[5]
  EC50: 42.6 µM (inactive)
[6]
  EC50: 32.3 µM (not active)

## Fc1cccc(Nc2c3c(nc4ccccc24)CCC3)c1
[1]
  EC50: 1.19 µM (active)

## CCOC(=O)c1ccc2c(c1)nc(S)n2CC
[4]
  EC50: > 79.4 µM (not active)
[5]
  EC50: 17.5 µM (inactive)
[6]
  EC50: 15.7 µM (not active)

## Cn1c(=O)cc(SCC(=O)NCC2CCCO2)c2ccccc21 (stereo not drawn)
[4]
  EC50: > 79.4 µM (not active)
[5]
  EC50: > 79.4 µM (inactive)
[6]
  EC50: > 79.4 µM (not active)

## COc1ccc(C(=O)C2=C(O)C(=O)N(c3cc(C)on3)C2c2ccccc2OC)cc1 (stereo not drawn)
[4]
  EC50: > 79.4 µM (not active)
[5]
  EC50: 22.9 µM (inactive)
[6]
  EC50: 18.2 µM (not active)

## CCOc1ccc(N2C(=O)S/C(=C\c3cccn3C)C2=O)cc1
[7]
  EC50: > 300 µM (not active)
[2]
  EC50: > 112 µM (not active)
[3]
  EC50: > 112 µM (not active)
[8]
  EC50: > 300 µM (inconclusive)

## COc1ccc(Cl)cc1N=C(N)Nc1nc(C)cc(C)n1
[1]
  EC50: 2.11 µM (active)

## N=C1/C(=C/c2ccc(Br)o2)C(=O)N=C2SC(CC(=O)N3CCCC3)=NN12
[9]
  IC50: > 80 µM (inactive)
Large T antigen
  IC50: 58.3 µM (active)

## Cn1c(S)nnc1-c1sc2cc(C(F)(F)F)cnc2c1-c1ccccc1
[4]
  EC50: 16.3 µM (not active)
[5]
  EC50: 3.6 µM (active)
[6]
  EC50: 5.17 µM (active)

## c1ccc2nc(-c3nc4ccccc4[nH]3)ccc2c1
[10]
  EC50: 9.4 µM (active)
[2]
  EC50: 0.49 µM (active)
[11]
  EC50: 11.1 µM (inconclusive)
[3]
  EC50: 2.16 µM (active)

## O=C(Cn1cnc2c(nnn2-c2cccc(Cl)c2)c1=O)NCc1ccccc1
[9]
  IC50: 8.16 µM (active)

## CCOc1ccccc1-c1nnc(S)o1
[4]
  EC50: > 79.4 µM (not active)
[5]
  EC50: > 2.94 µM (inactive)
[6]
  EC50: 35.6 µM (not active)

## COc1ccc(O)c(CN2CCCC(C(=O)c3sccc3C)C2)c1 (stereo not drawn)
[1]
  EC50: 3.35 µM (active)

## CSCCNC(=O)c1ccc(OC2CCN(CCc3ccccc3)CC2)cc1
[1]
  EC50: 0.473 µM (active)

## O=C(O)c1ccc(N=C(NS(=O)(=O)c2ccc(Cl)cc2)c2ccccc2)cc1
Coagulation factor XII
  IC50: > 50 µM (inactive)

## Cc1ccsc1/C=N/Nc1nc(O)nnc1C
[2]
  EC50: 0.519 µM (active)
[3]
  EC50: 5.47 µM (active)

## C/C(=N\Nc1ccc(Cl)c(C(=O)O)c1)c1ccc[nH]1
[7]
  EC50: > 150 µM (not active)
[9]
  IC50: 4.28 µM (active)
[8]
  EC50: > 300 µM (not active)

## C(=N\c1ccc(N2CCOCC2)cc1)/c1c[nH]c2ccccc12
Large T antigen
  IC50: 4.34 µM (active)

## O=C(CSc1nc2sc3c(c2c(=O)n1-c1ccccc1)CCCC3)N/N=C/c1ccc(C(=O)O)cc1
[9]
  IC50: 25.9 µM (active)

## COc1cc(/C=N/Nc2nc3ccccc3[nH]2)cc(OC)c1O
Large T antigen
  IC50: 7.09 µM (active)
